By pIC50 is commonly meant −log10 of the IC50, conventionally taken in molar units. Lower therefore signals a high IC50.

Consider 13 compounds from patent US20230365571A1, “COMPOUNDS AND COMPOSITIONS AS Sppl2a INHIBITORS” (Novartis AG, priority 2020, published 2023).

Holding throughout (type): cell-based
One test deals with T1, Sppl2a CD74 (Mus musculus, UniProt Q9JJF9).
T1 construct: Mouse whole blood Balb/c mice (sodium citrate) was ordered by Bioreclamation LLC; tissue Bioreclamation LLC
T1 sequence (Q9JJF9 26-523): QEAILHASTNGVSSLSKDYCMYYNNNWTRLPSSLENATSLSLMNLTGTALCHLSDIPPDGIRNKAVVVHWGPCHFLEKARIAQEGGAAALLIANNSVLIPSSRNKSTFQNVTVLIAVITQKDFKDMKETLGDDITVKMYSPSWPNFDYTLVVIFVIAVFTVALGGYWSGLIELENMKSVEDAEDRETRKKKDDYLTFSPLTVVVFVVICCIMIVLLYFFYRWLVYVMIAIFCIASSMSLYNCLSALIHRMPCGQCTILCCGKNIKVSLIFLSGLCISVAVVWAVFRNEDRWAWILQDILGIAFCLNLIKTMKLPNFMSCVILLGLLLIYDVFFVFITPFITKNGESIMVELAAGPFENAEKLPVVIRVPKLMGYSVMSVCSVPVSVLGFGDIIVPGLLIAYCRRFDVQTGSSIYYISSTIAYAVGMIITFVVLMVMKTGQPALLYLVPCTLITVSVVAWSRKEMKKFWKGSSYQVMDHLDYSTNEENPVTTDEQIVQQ
Put plainly: CD74/p8 mouse whole blood assay, flow cytometry format. Particulars: Balb/c mouse whole blood, 5 h, CD74 signal on gated live B cells. As for the experimental part: CD74/p8 Mouse Whole Blood Assay: Flow Cytometry Format
Mouse whole blood Balb/c mice (sodium citrate) was ordered by Bioreclamation LLC; USA. The blood was used the next day upon receipt (stored at 4° C.). 100 μL blood were transferred in 96 well format plate, where compounds, an 11 point dilutions down from 30 μM, to be tested were previously deposited. The plate was incubated for 5 h in the incubator at 37° C., 5% CO2 under continuous motion. After the incubation the blood was diluted with RBC Lysis Buffer (Amined; Cat. Nr 3-13F00-H or BD; Cat. Nr 555899). The solution was mixed by pipetting and incubated 10 min in the 37° C. incubator. The white blood cells were sedimented for 3 min at 2000 rpm. After removing the supernatant the cell pellet was resuspended and washed twice in RCB Buffer and kept≈ 5 min at room temperature, followed by a centrifugation for 2 min at 2000 rpm. The cell pellet was then resuspend in D-PBS and centrifuged twice. Finally, the cells were taken up in of D-PBS/0.5% inactivated fetal bovine serum/2 mM EDTA. The cell suspension was treated with Live/Dead fixable stain (Life Technologies, >470 nm version), B cells were identified by surface staining with an anti-B220 antibody coupled to APC fluorofor. After staining, the cells were extensively washed with PBS. The cells were permeabilized and fixed in FACS lysing buffer; (BD; #349202, dil 1:10 in water) and labelled with an anti CD74, FITC labelled antibody, washed once more with diluted FACS lysing buffer and spin down. The cell pellet was washed with D-PBS/0.5% inactivated fetal bovine serum/2 mM EDTA and PBS prior to the analysis in a flow cytometer. The compound concentrations were plotted against the intensity (medium fluorescence intensity) of the CD74 signal on the gated life B cell and IC50 were determined by fitting data for a 11 concentrations dose response.
In general terms: Flow cytometry measures light scatter and fluorescence of single cells or particles in a stream.

The target in test [1] is T2, human SPPL2a (Homo sapiens, UniProt Q8TCT8).
T2 sequence (Q8TCT8 26-520): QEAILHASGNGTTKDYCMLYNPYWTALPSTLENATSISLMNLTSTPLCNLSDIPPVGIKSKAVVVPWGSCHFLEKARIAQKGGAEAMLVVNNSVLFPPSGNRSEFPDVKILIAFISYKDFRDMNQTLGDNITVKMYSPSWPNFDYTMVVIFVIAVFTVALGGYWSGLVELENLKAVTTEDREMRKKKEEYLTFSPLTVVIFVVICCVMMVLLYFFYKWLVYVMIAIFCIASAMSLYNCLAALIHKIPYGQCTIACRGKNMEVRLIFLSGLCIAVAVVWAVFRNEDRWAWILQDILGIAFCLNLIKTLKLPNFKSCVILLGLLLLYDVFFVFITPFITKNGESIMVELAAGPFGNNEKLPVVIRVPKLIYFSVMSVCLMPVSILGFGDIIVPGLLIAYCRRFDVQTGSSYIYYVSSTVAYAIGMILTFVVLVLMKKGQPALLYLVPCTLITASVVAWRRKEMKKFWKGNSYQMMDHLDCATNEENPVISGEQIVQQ
The test is described as follows: Sppl2a TL (translocation) imaging assay in U-2 OS cells. Also on record: expressed in transfected cells. Conditions: U-2 OS cells expressing human SPPL2a and EGFP-TNFα(aa1-76) NTF substrate; 24 h. In outline:
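U-2 OS cells stably expressing human SPPL2a plus doxycycline-induced EGFP-TNFα(aa1-76) NTF, treated 24 h at 37 °C with inhibitor (100 μM–1 nM, 11 points, 0.9% DMSO, 5 μg/mL doxycycline). Imaging of nuclear-minus-cytoplasmic EGFP intensity; % inhibition versus 0.5 μM LY-411,575 and DMSO, IC50 by nonlinear regression; CC50 from cell count.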

The target of test [2] is T2, human SPPL2a. Put plainly: Sppl2a RGA (reporter gene assay) in HEK293 cells. Conditions: NT-TNF-VP16-Gal4 substrate, Gal4-luciferase reporter, 24 h. Also noted: expressed in transfected cells; host or cells: HEK293 (transient). In a few lines:
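HEK293 cells transiently co-transfected with human SPPL2a, NT-TNF-VP16-Gal4 substrate and Gal4-luciferase reporter, compound added within 5 h. After 24 h at 37 °C, luciferase luminescence measured; IC50 from concentration versus normalized luminescence.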
Background: Reporter assays use an easily measured gene product as a stand-in for the process of interest.

pIC50: −log10 of the molar value.

On to `CNC(=O)c1nc(C)c(C(=O)NC[C@@H](C)C(=O)N[C@@H]2C(=O)N3CCCN3Cc3ccccc32)s1` [Example 1, N^2,4-dimethyl-N^5—((R)-2-methyl-3-oxo-3-(((S)-11-oxo-2,3,10,11-tetrahydro-1H,5H-benzo[d]pyrazolo[1,2-a][1,2]diazepin-10-yl)amino)propyl)thiazole-2,5-dicarboxamide], for which the figures for the pIC50 at Sppl2a CD74, at human SPPL2a [1] and against human SPPL2a [2] were 6.45, 7.62 and 7.54, respectively.

For `Cc1nc(NC(=O)C(C)C)sc1C(=O)NC[C@H](C(=O)N[C@@H]1C(=O)N2CCCN2Cc2ccccc21)C(F)(F)F` [Example 3, 2-Isobutyramido-4-methyl-N-((R)-3,3,3-trifluoro-2-(((S)-11-oxo-2,3,10,11-tetrahydro-1H,5H-benzo[d]pyrazolo [1,2-a][1,2]diazepin-10-yl)carbamoyl)pro-pyl)thiazole-5-carboxamide], the figures for the pIC50 at Sppl2a CD74, against human SPPL2a [1] and against human SPPL2a [2] were 7.00, 9.30 and 8.52, respectively.

Consider `Cc1nc(NC(=O)C(C)C)sc1C(=O)NC[C@@H](C)C(=O)N[C@@H]1C(=O)N2CCCN2Cc2ccccc21` [Example 4, 2-Isobutyramido-4-methyl-N-((R)-2-methyl-3-oxo-3-(((S)-11-oxo-2,3,10,11-tetrahydro-1H,5H-benzo[d]pyrazolo [1,2-a][1,2]diazepin-10-yl)amino)propyl) thiazole-5-carboxamide], for which the results for the pIC50 at Sppl2a CD74, against human SPPL2a [1] and on human SPPL2a [2] were 7.00, 9.00 and 7.92, respectively.

Regarding `Cc1nc(C(=O)NCC(F)F)sc1C(=O)NC[C@H](C(=O)N[C@@H]1C(=O)N2CCCN2Cc2ccccc21)C(F)(F)F` [Example 5, N^2-(2,2-Difluoroethyl)-4-methyl-N^5-((R)-3,3,3-trifluoro-2-(((S)-11-oxo-2,3,10,11-tetrahydro-1H,5H-benzo[d]pyrazolo [1,2-a][1,2]diazepin-10-yl)carbamoyl)pro-pyl)thiazole-2,5-dicarboxamide], the pIC50 on Sppl2a CD74 is 6.65; against human SPPL2a [1], 8.70; against human SPPL2a [2] it was 8.70.

Turning to `Cc1nc(C(=O)NCC(F)F)sc1C(=O)NC[C@H](C(=O)N[C@@H]1C(=O)N2CCCN2Cc2ccccc21)C1CC1` [Example 6, N^5-((R)-2-Cyclopropyl-3-oxo-3-(((S)-11-oxo-2,3,10,11-tetrahydro-1H,5H-benzo[d]pyrazolo [1,2-a][1,2]diazepin-10-yl)amino)propyl)-N^2-(2,2-difluoroethyl)-4-methylthiazole-2,5-dicarboxamide], the pIC50 at Sppl2a CD74 is 5.81; against human SPPL2a [1], 8.70; against human SPPL2a [2], 8.70.

As for `CCNC(=O)c1nc(C)c(C(=O)NC[C@H](C(=O)N[C@@H]2C(=O)N3CCCN3Cc3ccccc32)C(F)(F)F)s1` [Example 7, N^2-Ethyl-4-methyl-N^5-((R)-3,3,3-trifluoro-2-(((S)-11-oxo-2,3,10,11-tetrahydro-1H,5H-benzo[d]pyrazolo [1,2-a][1,2]diazepin-10-yl)carbamoyl)pro-pyl)thiazole-2,5-dicarboxamide], the pIC50 against Sppl2a CD74 was 6.92; at human SPPL2a [1], 8.52; at human SPPL2a [2] it was 8.70.

As to `CC[C@H](CNC(=O)c1sc(C(=O)NCC(F)F)nc1C)C(=O)N[C@@H]1C(=O)N2CCCN2Cc2ccccc21` [Example 8, N^2-(2,2-Difluoroethyl)-4-methyl-N^5-((R)-2-(((S)-11-oxo-2,3,10,11-tetrahydro-1H,5H-benzo[d]pyrazolo [1,2-a][1,2]diazepin-10-yl)carbamoyl)butyl) thiazole-2,5-dicarboxamide], the pIC50 against Sppl2a CD74 was 5.61; on human SPPL2a [1], 8.52; against human SPPL2a [2], 8.40.

Turning to `CNC(=O)c1nc(C)c(C(=O)NC[C@H](C(=O)N[C@@H]2C(=O)N3CCCN3Cc3ccccc32)C2CC2)s1` [Example 9, N^5-((R)-2-Cyclopropyl-3-oxo-3-(((S)-11-oxo-2,3,10,11-tetrahydro-1H,5H-benzo[d]pyrazolo [1,2-a][1,2]diazepin-10-yl)amino)propyl)-N^2,4-dimethylthiazole-2,5-dicarboxamide], the negative logarithm of the IC50 (pIC50) was 6.80 on Sppl2a CD74, 8.52 on human SPPL2a [1] and 8.40 against human SPPL2a [2].

Take `C[C@H](Cc1nc2c(Cl)cccc2[nH]1)C(=O)N[C@@H]1C(=O)N2CCCN2Cc2ccccc21` [Example 115, (R)-3-(4-chloro-1H-benzo[d]imidazol-2-yl)-2-methyl-N-((S)-11-oxo-2,3,10,11-tetrahydro-1H,5H-benzo[d]pyrazolo[1,2-a][1,2]diazepin-10-yl)propanamide]: the values for the negative logarithm of the IC50 (pIC50) against human SPPL2a [1] and on human SPPL2a [2] were 5.40 and 6.64, respectively.

For `Cc1c(F)ccc2nc(C[C@@H](C)C(=O)N[C@@H]3C(=O)N4CCCN4Cc4ccccc43)[nH]c12` [Example 116, (R)-3-(6-fluoro-7-methyl-1H-benzo[d]imidazol-2-yl)-2-methyl-N-((S)-11-oxo-2,3,10,11-tetrahydro-1H,5H-benzo[d]pyrazolo[1,2-a][1,2]diazepin-10-yl)propanamide], the negative logarithm of the IC50 (pIC50) on human SPPL2a [1] was 6.94; against human SPPL2a [2], 7.89.

Regarding `Cc1cc(F)cc2nc(C[C@@H](C)C(=O)N[C@@H]3C(=O)N4CCCN4Cc4ccccc43)[nH]c12` [Example 117, (R)-3-(5-fluoro-7-methyl-1H-benzo[d]imidazol-2-yl)-2-methyl-N-((S)-11-oxo-2,3,10,11-tetrahydro-1H,5H-benzo[d]pyrazolo[1,2-a][1,2]diazepin-10-yl)propanamide], the pIC50 is 6.85 on human SPPL2a [1] and 7.68 against human SPPL2a [2].

Take `Cc1cc(F)cc2nc(C[C@@H](C)C(=O)N[C@@H]3C(=O)N4CCCN4Cc4c(F)cccc43)[nH]c12` [Example 118, (R)-N-((S)-6-fluoro-11-oxo-2,3,10,11-tetrahydro-1 H,5H-benzo[d]pyrazolo[1,2-a][1,2]diazepin-10-yl)-3-(5-fluoro-7-methyl-1H-benzo[d]imidazol-2-yl)-2-methylpropanamide]: the values for the pIC50 on human SPPL2a [1] and at human SPPL2a [2] were 6.94 and 7.72, respectively.

On to `CCC[C@H](Cc1nc2cc(F)cc(C)c2[nH]1)C(=O)N[C@@H]1C(=O)N2CCCN2Cc2ccccc21` [Example 119, (R)-2-((5-fluoro-7-methyl-1H-benzo[d]imidazol-2-yl)methyl)-N-((S)-11-oxo-2,3,10,11-tetrahydro-1H,5H-benzo[d]pyrazolo[1,2-a][1,2]diazepin-10-yl)pentanamide], for which the pIC50 is 6.73 at human SPPL2a [1] and 7.72 against human SPPL2a [2].
